Laboratory results taken from ChEMBL document CHEMBL2040815, “Sentulic acid: a cytotoxic ring A-seco triterpenoid from Sandoricum koetjape Merr” (Bioorg Med Chem Lett, 2012).
The source made the active and inactive calls. The calls are words filed in the database; no cut-off is given here.

Assays:
[1] = system: HL-60; test: Induction of apoptosis in human HL60 cells assessed as DNA fragmentation laddering at 100 uM by agarose gel electrophoresis; type: functional, cell-based
[2] = system: HL-60; test: Induction of apoptosis in human HL60 cells assessed as condensation of chromatin at 50 to 100 uM after 24 hrs by Hoechst 33342 staining; type: functional, cell-based
[3] = system: HL-60; test: Induction of apoptosis in human HL60 cells assessed as fragmentation of the nuclei at 50 to 100 uM after 24 hrs by Hoechst 33342 staining; type: functional, cell-based
[4] = system: HL-60; test: Cytotoxicity against human HL60 cells after 48 hrs by MTT assay; type: functional, cell-based; conditions: HL-60, 48 h
[5] = system: HL-60; test: Cytotoxicity against human HL60 cells assessed as decrease in cell viability after 24 to 72 hrs by trypan blue dye exclusion test; type: functional, cell-based
[6] = system: HL-60; test: Cytotoxicity against human HL60 cells assessed as inhibition of cell proliferation at 25 uM after 24 to 72 hrs by trypan blue dye exclusion test relative to control; type: functional
[7] = system: HL-60; test: Cytotoxicity against human HL60 cells assessed as inhibition of cell proliferation at 100 uM after 24 to 72 hrs by trypan blue dye exclusion test; type: functional, cell-based

Row | Compound | Activity [1] | Activity [2] | Activity [3] | IC50 [4] | Activity [5] | inhibition at 25 µM [6] | inhibition [7]
1 | C=C(C)[C@@H]1CC[C@]2(C)[C@H](CC=C3[C@@H]4CC(C)(C)CC[C@]4(C)CC[C@]32C(=O)O)[C@@]1(C)CCC(=O)O [SENTULIC ACID] | Active | Active | Active | 37 µM | Dose-dependent effect | 50% | Active
2 | CC1(C)CC[C@]2(C)CC[C@]3(C(=O)O)C(=CC[C@@H]4[C@@]5(C)CCC(=O)C(C)(C)[C@@H]5CC[C@]43C)[C@@H]2C1 | Active | Active | Active | 27.4 µM | Dose-dependent effect | 50% | Active
